Publication PMC8584265, “Stress Driven Discovery of Natural Products From Actinobacteria with Anti-Oxidant and Cytotoxic Activities Including Docking and ADMET Properties” (International Journal of Molecular Sciences, 2021)
Values after ≈ are worked out from the molar mass of the structure shown. Like-named read-outs stand apart in the source and are kept apart here.

Assays:
[1] = DPPH radical scavenging assay; format: biochemical; conditions: for inhibition of free radical (DPPH): 100 µg/mL; for IC50 DPPH Scavenging: mean ± SD, triplicate
Procedure: (§1) To evaluate the antioxidant potential of the stress compound, a multifaceted antioxidant evaluation of a stress compound was performed via DPPH scavenging assay, OH● radical scavenging assay, NO scavenging assay, and Iron chelating assay by following pre-described protocols.

NO scavenging assay = format: biochemical; conditions: for IC50 NO Inhibition: mean ± SD, triplicate
Procedure: as §1

[2] = system: prostate cancer cells (PC3); assay: MTT cytotoxicity assay; format: cell-based; conditions: Homo sapiens
Procedure: MTT assay was used to assess cytotoxicity against the human prostate PC3 cell line. […] PC3 cells were cultured in a humidified CO2 incubator at 37 °C in complete growth medium RPMI 1640 enriched with 2.2 g/L NaHCO3, 100 µg/mL streptomycin sulfate, 10% v/v heat-inactivated fetal bovine serum (HIFBS), […] amphotericin B, and 100 IU/mL penicillin G sodium. 20 µL of a compound in 1% DMSO in PBS and 180 µL of PC3 cancer cells were combined in a 96-well plate to reach a final concentration of 20 µg/mL for evaluating the cytotoxicity on PC3 cancer cells. The cells were loaded at an assay density of 1 × 10^4 cells/mL. The plate was incubated in humidified 5% CO2 at 37 °C for 24 h, 48 h, and 72 h. Cabazitaxel was utilized as a positive control, and 1 percent DMSO in PBS was employed as a negative control. Cabazitaxel was procured from Enzo life sciences, Fisher Scientific (Thermo Fisher Scientific, California, USA) CAS-183133-96-2 (ENZCHM2170010). A stock solution (4 mg/mL) of Cabazitaxel was prepared in DMSO and diluted in 1× PBS to make it 1% DMSO. Then serial dilutions of the standard compound were prepared in such a way that wells received 50, 25, 12.5, 6.25, and 3.12 µg/mL of Cabazitaxel with ≤1% DMSO. After that, 20 µL of pre-filter sterilized MTT solution was added to plates and incubated at 37 °C for 4 h in a CO2 incubator. Colored formazan crystals were detached by deliberately removing the supernatant and dissolved in 100 µL of DMSO with absorbance measured at 540 nm using Elx 800 microplate reader. Cytotoxicity was calculated using the following formula:% cytotoxicity = [100−(As/Ac × 100)] (1) where As and Ac show the absorbance of sample and negative control, respectively. Cytotoxicity was calculated with GraphPad Prism 5 software.

Iron chelating assay = format: biochemical; conditions: for IC50 Iron Chelation: mean ± SD, triplicate
Procedure: as §1

blood lymphocytes = assay: Comet assay (genotoxicity); format: cell-based
Procedure: To evaluate toxicity, blood lymphocytes were treated with 10 and 20 µg/mL MVL samples, 20 µg/mL EMS (positive), 1% DMSO in PBS (negative control), and comet assay was performed. The slides were envisioned under a fluorescent microscope, and the extent of DNA damage was evaluated by analyzing the photomicrographs via CASP 1.2.3.b image analysis. Analysis of 50–100 cells from each sample was performed to assess comet length, head length, tail length, tail moment, DNA content in the head, and tail of lymphocytes. […] The tail length (18.5 ± 1.4 µm) of EMS-treated DNA clearly indicates the production of nicks in nuclear content, representing a greater extent of genotoxicity. […]

[3] = OH● radical scavenging assay; format: biochemical; conditions: for inhibition of OH● radicals: 100 µg/mL; for IC50 OH● Inhibition: mean ± SD, triplicate
Procedure: as §1

PC3 cells = assay: In vitro scratch (cell migration) assay; format: cell-based, human; conditions: PC3, 10 µg/mL, 24 h treatment; control 16.62 ± 4.4%
Procedure: Stress compound MVL was tested for cell migration of PC3 using an established in vitro scratch test for 24 h. MVL (10 µg/mL) appeared to induce a significant reduction in cell migration at 12 and 24 h treatment of PC3. This was estimated by comparing the scratch area at every observation time as a percentage of control at 0 h. The area of scratch at 24 h treatment with MVL was recorded as 61.10 ± 5.2% compared to control (16.62 ± 4.4%) (Figure 5).
Figure 5 In vitro scratch assay on MVL treated prostate cancer cells. PC3 cells were plated in 6-well plates and scratched at the full confluence. […] Reduction in the area of the scratch was Photographed using Olympus CKX41 microscope and measured using ImageJ software. Data is mean ± SEM percent area of scratch in triplicate at ***: p < 0.001 and ****: p < 0.0001.
In vitro wounds were induced by a modified protocol described, and the scratch assay was performed on cells to study the effect of stress compound on cell migration. In the growth medium of 24-well plates, […] were injected at a density of 5 × 10^4 cells/well. After achieving about 100% proliferation, the cells were shifted to the basal media for 24 h. […] Images were recorded instantly after being wounded and then again portrayed at 0, 12, and 24 h time points. Using Image J software, cell migration rates were quantified by measuring the wound area change (pixels).

P53 = assay: Western blot expression analysis in PC3 cells; format: cell-based, human; conditions: PC3, 0, 5 and 10 µg/mL, 48 h
Procedure: (§2) To unveil the possible mechanistic reason behind the anti-proliferation of cancer cell colonies in MTT assays, expression analysis of apoptotic proteins P53, BCL-2 and BAX were assessed via western blot technique (Figure 6). GAPDH served as a loading control. Prostate cancer cells (PC3) were treated with compound MVL at three concentrations (0, 5, and 10 µg/mL) for 48 h. Protein (40–60 µg) from protein lysate was segregated and probed with specified monoclonal antibodies.
(§3) Figure 6 Western blot analysis of proteins associated with MVL induced apoptosis. Prostate cancer cells, PC3 were treated with MVL at a concentration of 0, 5, and 10 µg/mL for 48 h. […] GAPDH was used as a loading control. Fold change in P-53, BAX, and BCL-2 expression after treating for 48 h with different concentrations of MVL. Means with different superscripts (^a–c) indicate significant (p < 0.001) difference in fold change between groups.
(§4) PC3 cells were cultured in a T75 flask (1 × 10^6/flask). After 48 h, cells were treated with […]. Following treatment, media was aspirated and cells were washed with cold PBS whose pH was maintained at 7.4 trypsinized and pelleted in 15 mL falcon tubes, and cold lysis buffer was added to the pellet. Protein extraction and western blot analysis were done by following the protocol described previously.

BAX = assay: Western blot expression analysis in PC3 cells; format: cell-based, human; conditions: PC3, 0, 5 and 10 µg/mL, 48 h
Procedure: as §2, §3, §4

BCL-2 = assay: Western blot expression analysis in PC3 cells; format: cell-based, human; conditions: PC3, 0, 5 and 10 µg/mL, 48 h
Procedure: as §2, §3, §4

| Compound | inhibition of free radical (DPPH) [1] | IC50 DPPH Scavenging [1] | inhibition of NO free radicals (NO scavenging assay) | IC50 NO Inhibition (NO scavenging assay) | IC50 ([2]; 24 h, read-out: IC50 24 h) | IC50 ([2]; 48 h, read-out: IC50 48 h) | IC50 ([2]; 72 h, read-out: IC50 72 h) | iron chelation capacity (Iron chelating assay) | IC50 Iron Chelation (Iron chelating assay) | % DNA in Head (blood lymphocytes; 20 µg/mL) | % DNA in Tail (blood lymphocytes; 20 µg/mL) | Comet Length (blood lymphocytes; 20 µg/mL) | Head Length (blood lymphocytes; 20 µg/mL) | Tail Length (blood lymphocytes; 20 µg/mL) | Tail Moment (blood lymphocytes; 20 µg/mL) | inhibition of OH● radicals [3] | IC50 OH● Inhibition [3] | also measured |
| --- | --- | --- | --- | --- | --- | --- | --- | --- | --- | --- | --- | --- | --- | --- | --- | --- | --- | --- |
| O=C1O[C@H]([C@@H](O)CO)C(O)=C1O [Ascorbic acid, reference compound] | 84.23 ± 2.9% | 6.52 ± 4.92 mg/L (≈ 37 µM) | 81.69 ± 2.69% | 8.44 ± 4.17 mg/L (≈ 47.9 µM) | – | – | – | – | – | – | – | – | – | – | – | – | – | – |
| CO[C@H]1C(=O)[C@]2(C)[C@@H](OC)C[C@H]3OC[C@@]3(OC(C)=O)[C@H]2[C@H](OC(=O)c2ccccc2)[C@]2(O)C[C@H](OC(=O)[C@H](O)[C@@H](NC(=O)OC(C)(C)C)c3ccccc3)C(C)=C1C2(C)C [Cabazitaxel, reference compound] | – | – | – | – | 21.2 ± 5.1 mg/L (≈ 25.3 µM) | 15.1 ± 5.7 mg/L (≈ 18.1 µM) | 9.25 ± 3.4 mg/L (≈ 11.1 µM) | – | – | – | – | – | – | – | – | – | – | – |
| O=C(O)CN(CCN(CC(=O)O)CC(=O)O)CC(=O)O [EDTA, reference compound] | – | – | – | – | – | – | – | 81.52 ± 4.67% | 10.20 ± 6.54 mg/L (≈ 34.9 µM) | – | – | – | – | – | – | – | – | – |
| CCOS(C)(=O)=O [EMS, Ethyl methane sulfonate, reference compound] | – | – | – | – | – | – | – | – | – | 56.6 ± 3.5% | 43.4 ± 1.8 ^¥ % | 42.6 ± 3.6 µm | 24.1 ± 2.7 µm | 18.5 ± 1.4 µm | 1.37 ± 0.11 ^¥ µm | – | – | – |
| O=C(O)c1cc(O)c(O)c(O)c1 [Gallic acid, reference compound] | – | – | – | – | – | – | – | – | – | – | – | – | – | – | – | 83.15 ± 3.67% | 6.26 ± 6.39 mg/L (≈ 36.8 µM) | – |
| CC1=CC(=O)OCC1 [MVL, anhydromevalonolactone] | 78.18 ± 4.2% | 19.65 ± 5.7 mg/L (≈ 175 µM) | 80.05 ± 3.88% | 15.49 ± 4.8 mg/L (≈ 138 µM) | 35.8 ± 4.2 mg/L (≈ 319 µM) | 23.3 ± 3.8 mg/L (≈ 208 µM) | 16.2 ± 6.5 mg/L (≈ 145 µM) | 70.96 ± 5.79% | 19.38 ± 7.11 mg/L (≈ 173 µM) | 80.6 ± 1.8% | 19.4 ± 2.6 ^β, ¥ % | 41.4 ± 2.4 µm | 31.7 ± 1.8 µm | 8.5 ± 1.3 µm | 0.24 ± 0.03 ^β, ¥ µm | 72.69 ± 4.93% | 19.65 ± 5.22 mg/L (≈ 175 µM) | area of scratch as percentage of control at 0 h (PC3 cells): 61.10 ± 5.2%; % DNA in Head (blood lymphocytes; 10 µg/mL): 86.1 ± 2.8%; % DNA in Tail (blood lymphocytes; 10 µg/mL): 13.9 ± 1.8 ^β %; Comet Length (blood lymphocytes; 10 µg/mL): 42.6 ± 3.1 µm; Head Length (blood lymphocytes; 10 µg/mL): 36.7 ± 2.5 µm; Tail Length (blood lymphocytes; 10 µg/mL): 5.9 ± 0.3 µm; Tail Moment (blood lymphocytes; 10 µg/mL): 0.11 ± 0.03 ^β µm; P53 protein expression (P53): upregulation; BAX protein expression (BAX): upregulation; BCL-2 protein expression (BCL-2): downregulation |
